# Laboratory results reported in US20220323406A1, “METHODS AND COMPOSITIONS FOR DIFFERENTIATING STEM CELLS” (Massachusetts Institute of Technology, priority 2019, published 2022).
# Structures can show the parent of a compound that is named as a salt.
# Legend:
# [1] = tested on: ENR+CD organoids (ISC to Paneth cell differentiation); assay: Primary screen: basal (non-stimulated) lysozyme secretion LYZ.NS, 2.5-D 384-well ENR+CD organoid differentiation; type: cell-based, mouse
# Description: (§1) High-throughput screening.
# [2] = tested on: ENR+CD organoids (ISC to Paneth cell differentiation); assay: Primary screen: CCh-stimulated lysozyme secretion LYZ.S, 2.5-D 384-well ENR+CD organoid differentiation; type: cell-based, mouse; conditions: primary screen
# Description: as §1
# [3] = tested on: ENR+CD organoids; assay: Primary screen: ATP (CellTiter-Glo 3D, CTG) cell number/viability, 2.5-D 384-well ENR+CD organoids;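 note: compounds given at plating and again on day 3 over a 6-day differentiation from ENR+CV stem-cell-enriched precursors, ATP measured on day 6, plate median as control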
# [4] = primary screen, dose 0.08 uM, standard z score
# [5] = primary screen, dose 0.40 uM, standard z score
# [6] = primary screen, dose 2.00 uM, standard z score
# [7] = primary screen, dose 10.00 uM, standard z score
# [8] = primary screen; dose 0.08 uM; FC vs plate median
# [9] = primary screen; dose 0.40 uM; FC vs plate median
# [10] = primary screen; dose 2.00 uM; FC vs plate median
# [11] = primary screen; dose 10.00 uM; FC vs plate median
# [12] = dose 0.08 uM, FC vs plate median
# [13] = dose 0.40 uM, FC vs plate median
# [14] = dose 2.00 uM, FC vs plate median
# [15] = dose 10.00 uM, FC vs plate median
# [16] = primary screen, standard z score, dose 0.08 uM
# [17] = primary screen, standard z score, dose 0.40 uM
# [18] = primary screen, standard z score, dose 2.00 uM
# [19] = primary screen, standard z score, dose 10.00 uM
Molecule,"Z.LYZ.NS (standard z score) ([1]; primary screen, dose 0.08 uM)","Z.LYZ.NS (standard z score) ([1]; primary screen, dose 0.40 uM)","Z.LYZ.NS (standard z score) ([1]; primary screen, dose 2.00 uM)","Z.LYZ.NS (standard z score) ([1]; primary screen, dose 10.00 uM)",Dose.FC.LYZ.S (log2 fold change) ([2]; dose 0.08 uM),Dose.FC.LYZ.S (log2 fold change) ([2]; dose 0.40 uM),Dose.FC.LYZ.S (log2 fold change) ([2]; dose 10.00 uM),"Z.CTG (standard z score) ([3]; primary screen, dose 0.08 uM)","Dose.FC.LYZ.NS ([1]; primary screen, dose 0.08 uM) [log2 fold change]","Dose.FC.LYZ.NS ([1]; primary screen, dose 0.40 uM) [log2 fold change]","Dose.FC.LYZ.NS ([1]; primary screen, dose 2.00 uM) [log2 fold change]","Dose.FC.LYZ.NS ([1]; primary screen, dose 10.00 uM) [log2 fold change]",Dose.FC.LYZ.S ([2]; dose 0.08 uM) [log2 fold change],Dose.FC.LYZ.S ([2]; dose 0.40 uM) [log2 fold change],Dose.FC.LYZ.S ([2]; dose 2.00 uM) [log2 fold change],Dose.FC.LYZ.S ([2]; dose 10.00 uM) [log2 fold change],"Dose.FC.CTG ([3]; primary screen, dose 0.08 uM) [log2 fold change]","Dose.FC.CTG ([3]; primary screen, dose 0.40 uM) [log2 fold change]","Dose.FC.CTG ([3]; primary screen, dose 2.00 uM) [log2 fold change]","Dose.FC.CTG ([3]; primary screen, dose 10.00 uM) [log2 fold change]",other results
CCOC(=O)N1CCC(=C2c3ccc(Cl)cc3CCc3cccnc32)CC1 [Loratadine],0.093,−0.005,−0.938,−0.881,−0.076,0.011,−0.148,,,,,,,,,,,,,,"Dose.FC.LYZ.NS (log2 fold change) ([1]; primary screen, dose 0.08 uM): 0.011; Dose.FC.LYZ.NS (log2 fold change) ([1]; primary screen, dose 0.40 uM): −0.001; Dose.FC.LYZ.NS (log2 fold change) ([1]; primary screen, dose 2.00 uM): −0.108; Dose.FC.LYZ.NS (log2 fold change) ([1]; primary screen, dose 10.00 uM): −0.101; Dose.FC.LYZ.S (log2 fold change) ([2]; dose 2.00 uM): −0.148; Dose.FC.CTG (log2 fold change) ([3]; primary screen, dose 0.08 uM): −0.292; Dose.FC.CTG (log2 fold change) ([3]; primary screen, dose 0.40 uM): 0.145; Dose.FC.CTG (log2 fold change) ([3]; primary screen, dose 2.00 uM): −0.204; Dose.FC.CTG (log2 fold change) ([3]; primary screen, dose 10.00 uM): −0.120"
C#Cc1cccc(Nc2ncnc3cc4c(cc23)OCCOCCOCCO4)c1 [Icotinib],0.255,−0.632,−1.160,−2.518,0.094,−0.090,−0.419,,,,,,,,,,,,,,"Dose.FC.LYZ.NS (log2 fold change) ([1]; primary screen, dose 0.08 uM): 0.029; Dose.FC.LYZ.NS (log2 fold change) ([1]; primary screen, dose 0.40 uM): −0.073; Dose.FC.LYZ.NS (log2 fold change) ([1]; primary screen, dose 2.00 uM): −0.133; Dose.FC.LYZ.NS (log2 fold change) ([1]; primary screen, dose 10.00 uM): −0.289; Dose.FC.LYZ.S (log2 fold change) ([2]; dose 2.00 uM): −0.243; Dose.FC.CTG (log2 fold change) ([3]; primary screen, dose 0.08 uM): −0.020; Dose.FC.CTG (log2 fold change) ([3]; primary screen, dose 0.40 uM): −0.061; Dose.FC.CTG (log2 fold change) ([3]; primary screen, dose 2.00 uM): −0.406; Dose.FC.CTG (log2 fold change) ([3]; primary screen, dose 10.00 uM): −1.068"
C=CC(=O)N1CCC[C@@H](n2nc(-c3ccc(Oc4ccccc4)cc3)c3c(N)ncnc32)C1 [Ibrutinib (PCI-32765)],−0.619,−1.225,−1.763,−1.737,−0.139,−0.206,−0.312,−0.065,,,,,,,,,,,,,"Z.CTG (standard z score) ([3]; primary screen, dose 0.40 uM): −1.112; Z.CTG (standard z score) ([3]; primary screen, dose 2.00 uM): −1.244; Z.CTG (standard z score) ([3]; primary screen, dose 10.00 uM): −2.224"
COc1ccc(C(=O)N2CCCC2=O)cc1 [Aniracetam],0.774,0.486,0.277,0.105,,,,,0.089,0.056,0.032,0.012,0.043,0.148,0.005,−0.028,−0.088,0.112,0.054,0.019,
CN1CCCCC1Cn1cc(C(=O)c2cc([N+](=O)[O-])ccc2I)c2ccccc21 (centres unmarked) [AM1241],0.454,0.035,−0.123,−0.028,,,,0.379,0.052,0.004,−0.014,−0.003,0.046,0.088,−0.017,−0.080,0.159,−0.054,−0.062,−0.001,"Z.CTG (standard z score) ([3]; primary screen, dose 0.40 uM): −0.129; Z.CTG (standard z score) ([3]; primary screen, dose 2.00 uM): −0.147; Z.CTG (standard z score) ([3]; primary screen, dose 10.00 uM): −0.002"
COc1cc(OC)c(NC(=O)Nc2cc(C)on2)cc1Cl [PNU-120596],,,,,,,,,,,,,,,,,,,,,"Z.LYZ.NS [1, 4]: 0.944; Z.LYZ.NS [1, 5]: −0.098; Z.LYZ.NS [1, 6]: 0.594; Z.LYZ.NS [1, 7]: −0.525; Dose.FC.LYZ.NS [1, 8]: 0.108 log2 fold change; Dose.FC.LYZ.NS [1, 9]: −0.011 log2 fold change; Dose.FC.LYZ.NS [1, 10]: 0.068 log2 fold change; Dose.FC.LYZ.NS [1, 11]: −0.060 log2 fold change; Dose.FC.LYZ.S [2, 12]: 0.058 log2 fold change; Dose.FC.LYZ.S [2, 13]: 0.081 log2 fold change; Dose.FC.LYZ.S [2, 14]: 0.065 log2 fold change; Dose.FC.LYZ.S [2, 15]: −0.049 log2 fold change; Z.CTG [3, 4]: −0.188; Z.CTG [3, 5]: 0.204; Z.CTG [3, 6]: 0.271; Z.CTG [3, 7]: 0.330; Dose.FC.CTG [3, 8]: −0.079 log2 fold change; Dose.FC.CTG [3, 9]: 0.085 log2 fold change; Dose.FC.CTG [3, 10]: 0.114 log2 fold change; Dose.FC.CTG [3, 11]: 0.138 log2 fold change"
BAM7,0.391,−0.082,0.498,−0.063,,,,0.498,0.045,−0.009,0.057,−0.007,0.079,0.039,0.019,−0.020,0.209,−0.010,−0.156,−0.114,"Z.CTG (standard z score) ([3]; primary screen, dose 0.40 uM): −0.024; Z.CTG (standard z score) ([3]; primary screen, dose 2.00 uM): −0.373; Z.CTG (standard z score) ([3]; primary screen, dose 10.00 uM): −0.272"
Cc1cc(C(C)(C)C)c(O)c(C)c1CC1=NCCN1 [Oxymetazoline HCl],,,,,,,,,,,,,,,,,,,,,"Z.LYZ.NS [1, 4]: 0.515; Z.LYZ.NS [1, 5]: 0.134; Z.LYZ.NS [1, 6]: 0.199; Z.LYZ.NS [1, 7]: 0.065; Dose.FC.LYZ.NS [1, 8]: 0.059 log2 fold change; Dose.FC.LYZ.NS [1, 9]: 0.015 log2 fold change; Dose.FC.LYZ.NS [1, 10]: 0.023 log2 fold change; Dose.FC.LYZ.NS [1, 11]: 0.007 log2 fold change; Dose.FC.LYZ.S [2, 12]: 0.143 log2 fold change; Dose.FC.LYZ.S [2, 13]: 0.116 log2 fold change; Dose.FC.LYZ.S [2, 14]: −0.012 log2 fold change; Dose.FC.LYZ.S [2, 15]: −0.046 log2 fold change; Dose.FC.CTG [3, 8]: 0.143 log2 fold change; Dose.FC.CTG [3, 9]: 0.118 log2 fold change; Dose.FC.CTG [3, 10]: −0.007 log2 fold change; Dose.FC.CTG [3, 11]: 0.118 log2 fold change"
CCn1c2ccccc2c2cc(Nc3ccnc(NCCCN4CCOCC4)n3)ccc21 [EHop-016],,,,,,,,,0.177,0.035,0.029,−0.203,0.091,0.012,−0.011,−0.299,0.081,0.062,0.088,−0.757,"Z.LYZ.NS [1, 16]: 1.537; Z.LYZ.NS [1, 17]: 0.302; Z.LYZ.NS [1, 18]: 0.252; Z.LYZ.NS [1, 19]: −1.769; Z.CTG [3, 16]: 0.193; Z.CTG [3, 17]: 0.147; Z.CTG [3, 18]: 0.211; Z.CTG [3, 19]: −1.808"
